Assay: Inhibition of HCV NS3 serine protease
Design: species or system Hepacivirus hominis
`O=C(Oc1c(O)cc(C(=O)O[C@H]2[C@H](OC(=O)c3cc(O)c(O)c(O)c3)O[C@H](CO)[C@@H](OC(=O)c3cc(O)c(O)c(O)c3)[C@@H]2OC(=O)c2cc(O)c(O)c(O)c2)cc1O)c1cc(O)c(O)c(O)c1` gave an IC50 of 660 nM. `O=C(OC[C@H]1O[C@@H](OC(=O)c2cc(O)c(O)c(O)c2)[C@H](O)[C@@H](OC(=O)c2cc(O)c(O)c(O)c2)[C@@H]1O)c1cc(O)c(O)c(O)c1` showed an IC50 of 10100 nM. `O=C(O[C@@H]1O[C@H](CO)[C@@H](OC(=O)c2cc(O)c(O)c(O)c2)[C@H](OC(=O)c2cc(O)c(O)c(O)c2)[C@H]1O)c1cc(O)c(O)c(O)c1` gave an IC50 of 1000 nM. Work on `O=C(OC[C@H]1O[C@@H](O)[C@H](O)[C@@H](OC(=O)c2cc(O)c(O)c(O)c2)[C@@H]1O)c1cc(O)c(O)c(O)c1` yielded an IC50 of 950000 nM. In the case of `O=C(Oc1cc(C(=O)O[C@@H]2O[C@H](CO)[C@@H](OC(=O)c3cc(O)c(O)c(O)c3)[C@H](OC(=O)c3cc(O)c(O)c(O)c3)[C@H]2OC(=O)c2cc(O)c(O)c(O)c2)cc(O)c1O)c1cc(O)c(O)c(O)c1`, the IC50 is reported as 680 nM.

Source: ChEMBL document CHEMBL1144525, “Prediction of binding for a kind of non-peptic HCV NS3 serine protease inhibitors from plants by molecular docking and MM-PBSA method” (Bioorg Med Chem, 2007)
